# Reference: ChEMBL document CHEMBL5233210, “Pyrazolone structural motif in medicinal chemistry: Retrospect and prospect” (Eur J Med Chem, 2020)
# Assays:
# Mus musculus [1] = organism: Mus musculus; assay: Antidepressant activity in Swiss albino mouse assessed as change in immobility by tail suspension test; type: functional
# Mus musculus [2] = organism: Mus musculus; assay: Antidepressant activity in Swiss albino mouse assessed as decrease in immobility time by tail suspension test (reference value: 185.8 sec); type: functional
# Mus musculus [3] = organism: Mus musculus; assay: Antidepressant activity in Swiss albino mouse assessed as decrease in immobility time by forced swim test (reference value: 203.3 sec); type: functional
# Mus musculus [4] = organism: Mus musculus; assay: Antidepressant activity in Swiss albino mouse assessed as change in immobility by forced swim test; type: functional
# Salmonella paratyphi = assay: Antibacterial activity against Salmonella paratyphi assessed as diameter of inhibition zone at 100 ppm; type: functional, Salmonella enterica subsp. enterica serovar Paratyphi A; conditions: Salmonella enterica, read-out: DIZ
# Bacillus subtilis = assay: Antibacterial activity against Bacillus subtilis assessed as diameter of inhibition zone at 100 ppm; type: functional; conditions: read-out: DIZ
# Candida albicans [5] = assay: Antifungal activity against Candida albicans assessed as diameter of inhibition zone at 100 ppm; type: functional; conditions: read-out: DIZ
# Pseudomonas aeruginosa [6] = assay: Antibacterial activity against Pseudomonas aeruginosa assessed as diameter of inhibition zone at 100 ppm; type: functional; conditions: read-out: DIZ
# Salmonella typhi = assay: Antibacterial activity against Salmonella typhi assessed as diameter of inhibition zone at 100 ppm; type: functional, Salmonella enterica subsp. enterica serovar Typhi; conditions: Salmonella enterica, read-out: DIZ
# Trichoderma viride = assay: Antifungal activity against Trichoderma viride assessed as diameter of inhibition zone at 100 ppm; type: functional; conditions: read-out: DIZ
# Streptococcus mutans = assay: Antibacterial activity against Streptococcus mutans assessed as diameter of inhibition zone at 100 ppm; type: functional; conditions: read-out: DIZ
# Micrococcus luteus = assay: Antibacterial activity against Micrococcus luteus assessed as diameter of inhibition zone at 100 ppm; type: functional; conditions: read-out: DIZ
# [7] = biological target: T1, Prostaglandin G/H synthase 2 (Ovis aries, UniProt P79208); assay: Inhibition of ovine COX-2
# T1 sequence (P79208 whole entry): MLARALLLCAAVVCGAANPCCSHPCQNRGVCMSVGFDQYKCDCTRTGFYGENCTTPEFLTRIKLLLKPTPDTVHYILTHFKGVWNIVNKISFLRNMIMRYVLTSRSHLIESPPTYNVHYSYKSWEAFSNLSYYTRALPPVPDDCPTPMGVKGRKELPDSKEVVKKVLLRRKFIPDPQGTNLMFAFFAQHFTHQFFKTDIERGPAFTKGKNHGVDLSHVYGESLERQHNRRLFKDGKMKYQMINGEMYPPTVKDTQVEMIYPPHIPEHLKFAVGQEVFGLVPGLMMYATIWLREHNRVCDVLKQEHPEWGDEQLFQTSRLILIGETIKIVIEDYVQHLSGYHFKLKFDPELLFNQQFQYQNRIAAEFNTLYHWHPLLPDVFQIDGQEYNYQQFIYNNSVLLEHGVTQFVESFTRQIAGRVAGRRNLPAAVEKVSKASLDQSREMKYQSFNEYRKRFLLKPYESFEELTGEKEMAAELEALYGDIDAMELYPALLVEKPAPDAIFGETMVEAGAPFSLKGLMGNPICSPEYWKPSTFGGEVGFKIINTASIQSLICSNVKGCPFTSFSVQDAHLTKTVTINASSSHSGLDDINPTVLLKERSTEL
# [8] = biological target: T2, Prostaglandin G/H synthase 1 (Ovis aries, UniProt P05979); assay: Inhibition of ovine COX-1
# T2 sequence (P05979 whole entry): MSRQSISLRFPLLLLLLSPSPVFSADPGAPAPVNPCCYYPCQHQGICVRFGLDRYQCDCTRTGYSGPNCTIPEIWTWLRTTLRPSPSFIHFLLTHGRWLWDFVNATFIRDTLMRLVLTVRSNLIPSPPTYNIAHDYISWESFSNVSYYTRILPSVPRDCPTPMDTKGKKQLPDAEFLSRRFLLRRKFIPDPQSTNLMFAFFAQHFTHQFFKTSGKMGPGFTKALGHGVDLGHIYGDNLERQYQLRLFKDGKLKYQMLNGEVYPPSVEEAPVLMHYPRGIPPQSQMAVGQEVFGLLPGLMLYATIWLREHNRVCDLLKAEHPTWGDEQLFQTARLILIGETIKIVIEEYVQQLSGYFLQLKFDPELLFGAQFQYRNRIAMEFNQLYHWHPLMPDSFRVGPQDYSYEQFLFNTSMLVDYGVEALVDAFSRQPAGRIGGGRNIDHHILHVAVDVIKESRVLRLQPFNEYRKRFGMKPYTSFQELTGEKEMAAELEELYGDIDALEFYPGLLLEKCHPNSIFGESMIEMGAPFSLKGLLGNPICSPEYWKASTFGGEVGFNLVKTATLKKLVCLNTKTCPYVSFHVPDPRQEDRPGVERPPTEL
# Ovis aries = organism: Ovis aries; assay: Selectivity index, ratio of IC50 for ovine COX-1 to IC50 for ovine COX-2
# Pseudomonas aeruginosa [9] = assay: Antibacterial activity against Pseudomonas aeruginosa; type: functional
# Candida albicans [10] = assay: Antifungal activity against Candida albicans; type: functional
# Aspergillus fumigatus = assay: Antifungal activity against Aspergillus fumigatus; type: functional
# Streptococcus pyogenes = assay: Antibacterial activity against Streptococcus pyogenes; type: functional
# Escherichia coli [11] = assay: Antibacterial activity against Escherichia coli; type: functional
# Aspergillus niger = assay: Antifungal activity against Aspergillus niger assessed as diameter of inhibition zone at 100 ppm; type: functional; conditions: read-out: DIZ
# Escherichia coli [12] = assay: Antibacterial activity against Escherichia coli assessed as diameter of inhibition zone at 100 ppm; type: functional; conditions: read-out: DIZ
# PC-3 = assay: Cytotoxicity against human PC-3 cells; type: functional, cell-based
# HepG2 = assay: Cytotoxicity against human HepG2 cells; type: functional, cell-based
# Ehrlich [13] = assay: Cytotoxicity against mouse Ehrlich ascites cells assessed as dead cells at 25 ug/ml; type: functional; conditions: dose 25 µg/ml
# MCF7 = assay: Cytotoxicity against human MCF7 cells; type: functional, cell-based
# Ehrlich [14] = assay: Cytotoxicity against mouse Ehrlich ascites cells assessed as dead cells at 100 ug/ml; type: functional; conditions: dose 100 µg/ml
# Ehrlich [15] = assay: Cytotoxicity against mouse Ehrlich ascites cells assessed as dead cells at 500 ug/ml; type: functional; conditions: dose 500 µg/ml
# Rattus norvegicus [16] = assay: Antiinflammatory activity against rat assessed as inhibition of carrageenan-induced paw edema; type: functional
# Rattus norvegicus [17] = assay: Antiinflammatory activity against rat assessed as inhibition of carrageenan-induced paw edema relative to control; type: functional; design: concentration or dose not given beside the values
compound,measurement,setting,value
CC1=NN(C(=O)c2ccc3ccccc3c2)C(=O)C1/N=N/c1ccc(Cl)cc1Cl (stereo not drawn),Activity,Mus musculus [1],-38.4%
same,Time,Mus musculus [2],114.3 s
same,Time,Mus musculus [3],97.7 s
same,Activity,Mus musculus [4],-51.9%
Cc1[nH]n(-c2ccccc2)c(=O)c1C(c1ccc(Br)cc1)c1c(O)ccc2ccccc12 (stereo not drawn),zone of inhibition at 100 µg/mL,Salmonella paratyphi,19.5 mm
same,zone of inhibition at 100 µg/mL,Bacillus subtilis,18.5 mm
same,zone of inhibition at 100 µg/mL,Candida albicans [5],15.5 mm
same,zone of inhibition at 100 µg/mL,Pseudomonas aeruginosa [6],14.5 mm
same,zone of inhibition at 100 µg/mL,Salmonella typhi,19.5 mm
same,zone of inhibition at 100 µg/mL,Trichoderma viride,13.5 mm
same,zone of inhibition at 100 µg/mL,Streptococcus mutans,29.5 mm
same,zone of inhibition at 100 µg/mL,Micrococcus luteus,18.5 mm
NS(=O)(=O)c1ccc(N2N=C/C(=N/Nc3ccccc3C(=O)O)C2=O)cc1,IC50,[7],770 nM
same,IC50,[8],4080 nM
same,Ratio IC50,Ovis aries,5.29
CC(C)CCC[C@@H](C)[C@H]1CC[C@H]2[C@@H]3C/C(=C4\C(=O)NN=C4N)C4CC(Cl)CC[C@]4(C)[C@H]3CC[C@]12C (stereo partly drawn),MIC,Pseudomonas aeruginosa [9],50 µg/mL
same,MIC,Candida albicans [10],50 µg/mL
same,MIC,Aspergillus fumigatus,50 µg/mL
same,MIC,Streptococcus pyogenes,50 µg/mL
same,MIC,Escherichia coli [11],100 µg/mL
Nc1cc(=O)n(-c2ccc([N+](=O)[O-])cc2[N+](=O)[O-])[nH]1,zone of inhibition at 100 µg/mL,Aspergillus niger,15.2 mm
same,zone of inhibition at 100 µg/mL,Escherichia coli [12],15.3 mm
same,zone of inhibition at 100 µg/mL,Bacillus subtilis,18.1 mm
same,zone of inhibition at 100 µg/mL,Pseudomonas aeruginosa [6],17.4 mm
CC/C(=N/NC(=O)c1ccco1)c1c(C)nn(-c2ccccc2)c1O,IC50,PC-3,6.8 µg/mL
same,IC50,HepG2,5.69 µg/mL
Cc1ccc(/N=N/c2c(N)n[nH]c2N)cc1,zone of inhibition at 100 µg/mL,Aspergillus niger,25.5 mm
same,zone of inhibition at 100 µg/mL,Escherichia coli [12],23.1 mm
same,zone of inhibition at 100 µg/mL,Bacillus subtilis,25.3 mm
same,zone of inhibition at 100 µg/mL,Pseudomonas aeruginosa [6],19.3 mm
CN(C)CCCN1c2ccccc2CCc2ccccc21 [IMIPRAMINE],Activity,Mus musculus [1],-41.3%
same,Time,Mus musculus [2],109 s
same,Time,Mus musculus [3],94 s
same,Activity,Mus musculus [4],-53.8%
NS(=O)(=O)c1ccc(N/N=C2/C=NN(c3ccccc3C(=O)O)C2=O)cc1,IC50,[7],660 nM
same,IC50,[8],3760 nM
same,Ratio IC50,Ovis aries,5.69
Cc1[nH]n(-c2ccccc2)c(=O)c1C(c1ccc(Br)c(F)c1)c1c(O)ccc2ccccc12 (stereo not drawn),zone of inhibition at 100 µg/mL,Salmonella paratyphi,19.5 mm
same,zone of inhibition at 100 µg/mL,Bacillus subtilis,19.5 mm
same,zone of inhibition at 100 µg/mL,Candida albicans [5],18.5 mm
same,zone of inhibition at 100 µg/mL,Pseudomonas aeruginosa [6],14.5 mm
same,zone of inhibition at 100 µg/mL,Salmonella typhi,20.5 mm
same,zone of inhibition at 100 µg/mL,Trichoderma viride,10.5 mm
same,zone of inhibition at 100 µg/mL,Streptococcus mutans,18 mm
same,zone of inhibition at 100 µg/mL,Micrococcus luteus,16.5 mm
Cc1[nH]n(-c2ccccc2)c(=O)c1C(c1ccc([N+](=O)[O-])cc1[N+](=O)[O-])c1c(O)ccc2ccccc12 (stereo not drawn),zone of inhibition at 100 µg/mL,Salmonella paratyphi,20 mm
same,zone of inhibition at 100 µg/mL,Bacillus subtilis,22.5 mm
same,zone of inhibition at 100 µg/mL,Candida albicans [5],28.5 mm
same,zone of inhibition at 100 µg/mL,Pseudomonas aeruginosa [6],13.5 mm
same,zone of inhibition at 100 µg/mL,Salmonella typhi,20 mm
same,zone of inhibition at 100 µg/mL,Trichoderma viride,21.5 mm
same,zone of inhibition at 100 µg/mL,Streptococcus mutans,14.5 mm
same,zone of inhibition at 100 µg/mL,Micrococcus luteus,21.5 mm
CC(C)CCC[C@@H](C)[C@H]1CC[C@H]2[C@@H]3C/C(=C4\C(=O)NN=C4N)C4CCCC[C@]4(C)[C@H]3CC[C@]12C (stereo partly drawn),MIC,Pseudomonas aeruginosa [9],50 µg/mL
same,MIC,Candida albicans [10],25 µg/mL
same,MIC,Aspergillus fumigatus,25 µg/mL
same,MIC,Streptococcus pyogenes,50 µg/mL
same,MIC,Escherichia coli [11],50 µg/mL
CC1=NN(C(=O)c2ccc3ccccc3c2)C(=O)C1/N=N/c1ccc(C)cc1C (stereo not drawn),Activity,Mus musculus [1],-40.2%
same,Time,Mus musculus [2],111 s
same,Time,Mus musculus [3],129.5 s
same,Activity,Mus musculus [4],-36.3%
O=c1[nH]cc(F)c(=O)[nH]1 [FLUOROURACIL],Activity,Ehrlich [13],38.6%
same,IC50,MCF7,5.5 µg/mL
same,Activity,Ehrlich [14],97.3%
same,IC50,PC-3,8.3 µg/mL
same,Activity,Ehrlich [15],68%
same,IC50,HepG2,7.9 µg/mL
NS(=O)(=O)c1ccc(N2N=C/C(=N/Nc3ccc(C(=O)O)cc3)C2=O)cc1,IC50,[7],720 nM
same,ED50,Rattus norvegicus [16],44 µmol/kg
same,IC50,[8],3810 nM
same,Ratio IC50,Ovis aries,5.29
same,Activity,Rattus norvegicus [17],72.72%
CC(=O)OC1CC[C@@]2(C)C(C1)/C(=C1/C(=O)NN=C1N)C[C@H]1[C@@H]3CC[C@H]([C@H](C)CCCC(C)C)[C@@]3(C)CC[C@@H]12 (stereo partly drawn),MIC,Pseudomonas aeruginosa [9],50 µg/mL
same,MIC,Candida albicans [10],25 µg/mL
same,MIC,Aspergillus fumigatus,50 µg/mL
same,MIC,Streptococcus pyogenes,50 µg/mL
same,MIC,Escherichia coli [11],50 µg/mL
